Patent publication US4223021A, “Synthetic peptides having pituitary growth hormone releasing activity” (priority 1979, dated 1980)
Residues, ends and D or L forms follow the SMILES beside them.

System: pituitaries removed from 20 day old female rats
Assay: In vitro growth hormone release study (incubated rat pituitaries, GH radioimmunoassay)
Format: cell-based
Conditions: mean ± SEM, control -198± 85
Method: Female rats of the CD-1 strain were housed in a constant temperature room at 24° C. with 14 hours light and 10 hours darkness. The rats were fed Purina brand rat chow ab libitum.
All studies were started between 0800 and 1000 hours.
Pituitaries were removed from 20 day old female rats. Two pituitaries were incubated at 36° C. in 1 ml of lactated Ringer's solution in 10 ml polytetrafluoroethylene beakers in a Dubnoff Shaker (90 cycles/min.). The pituitaries were incubated a total of 4 hours (P1, P2, I3, and I4). After two successive one hour preincubation periods (P1, P2), the peptide was added to the incubation medium hourly for 2 hours (I3, I4).
This in vitro study was performed in triplicate and a standard radioimmunoassay of growth hormone present in the incubation medium was performed in duplicate. The hormonal activity was calculated as the difference (Δ) of growth hormone (GH) levels between I3, I4 and P2, i.e., (I3 -P2) and (I4 -P2). P values were calculated by Students' t test using six growth hormone values for each value recorded.
The growth hormone radioimmunoassay reagents were distributed by the National Institute of Arthritis and […] (NIAMDD) program. The growth hormone values were calculated in terms of nanograms (ng) of a rat standard with a growth hormone potency of 0.61 units/mg.

`NC(=O)[C@@H](Cc1ccccc1)NC(=O)[C@H](Cc1ccccc1)NC(=O)[C@@H](Cc1c[nH]c2ccccc12)NC(=O)CNC(=O)[C@@H](N)Cc1ccc(O)cc1` [H2 N-Tyr-Gly-D-Trp-Phe-D-Phe-CONH2] (HELM PEPTIDE1{Y.G.[dW].F.[dF].[am]}$$$$V2.0) was tested, and the “In vitro growth hormone release (ΔGH, I3/I4 minus P2)” value (1μg peptide, P value not significant) was 200 ± 167 ngΔGH/ml incubation medium, the “In vitro growth hormone release (ΔGH, I3/I4 minus P2)” value (10μg peptide, P value <0.001) was 1384 ± 120 ngΔGH/ml incubation medium and the “In vitro growth hormone release (ΔGH, I3/I4 minus P2)” value (100μg peptide, P value <0.001) was 1196 ± 194 ngΔGH/ml incubation medium.
